# Reference: PubChem BioAssay AID2060487 (Molecular Pharmacology Branch, DTP, NCI, 2025)
# System: 997537-175-T-J1-PDC complex spheroid viability
# Test: Anticancer human tumor 997537-175-T-J1-PDC patient-derived colon adenocarcinoma cell line growth inhibition [GQUAD]
# Conditions: for IC50: curve of first compound; for viability, T/C: stronger effect = lower value
# Procedure, shortened: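 Multi-cell-type spheroids of tumor cells with HUVEC and mesenchymal stem cells, treated with drug combinations. Concentrations descend in half-log steps from near clinical Cmax, or from 10 microM where Cmax is unknown; viability read-out.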
# [1] = second compound 0.0316 µM, first compound 0.0316 µM
# [2] = second compound 0.0316 µM, first compound 0.1 µM
# [3] = second compound 0.0316 µM, first compound 0.316 µM
# [4] = second compound 0.0316 µM, first compound 1 µM
# [5] = second compound 0.0316 µM, first compound 3.16 µM
# [6] = second compound 0.0316 µM, first compound 10 µM
# [7] = second compound 0.1 µM, first compound 0.0316 µM
# [8] = second compound 0.1 µM, first compound 0.1 µM
# [9] = second compound 0.1 µM, first compound 0.316 µM
# [10] = second compound 0.1 µM, first compound 1 µM
# [11] = second compound 0.1 µM, first compound 3.16 µM
# [12] = second compound 0.1 µM, first compound 10 µM
# [13] = second compound 0.316 µM, first compound 0.0316 µM
# [14] = second compound 0.316 µM, first compound 0.1 µM
# [15] = second compound 0.316 µM, first compound 0.316 µM
# [16] = second compound 0.316 µM, first compound 1 µM
# [17] = second compound 0.316 µM, first compound 3.16 µM
# [18] = second compound 0.316 µM, first compound 10 µM
# [19] = second compound 1 µM, first compound 0.0316 µM
# [20] = second compound 1 µM, first compound 0.1 µM
# [21] = second compound 1 µM, first compound 0.316 µM
# [22] = second compound 1 µM, first compound 1 µM
# [23] = second compound 1 µM, first compound 3.16 µM
# [24] = second compound 1 µM, first compound 10 µM
# [25] = second compound 3.16 µM, first compound 0.0316 µM
# [26] = second compound 3.16 µM, first compound 0.1 µM
# [27] = second compound 3.16 µM, first compound 0.316 µM
# [28] = second compound 3.16 µM, first compound 1 µM
# [29] = second compound 3.16 µM, first compound 3.16 µM
# [30] = second compound 3.16 µM, first compound 10 µM
# [31] = second compound 10 µM, first compound 0.0316 µM
# [32] = second compound 10 µM, first compound 0.1 µM
# [33] = second compound 10 µM, first compound 0.316 µM
# [34] = second compound 10 µM, first compound 1 µM
# [35] = second compound 10 µM, first compound 3.16 µM
# [36] = second compound 10 µM, first compound 10 µM
# 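Further: spheroids exposed to the agents for 7 days.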
# 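Wherever viability, T/C is given: 100% = DMSO vehicle control viability.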
smiles,measurement,setting,value
O=c1[nH]cc(F)c(=O)[nH]1 + CN(C)c1ccc(Nc2c3ccc(NC(=O)CCN4CCCC4)cc3nc3cc(NC(=O)CCN4CCCC4)ccc23)cc1,IC50,second compound 0.0316 µM,> 10 µM
same,IC50,second compound 0.1 µM,> 10 µM
same,IC50,second compound 0.316 µM,> 10 µM
same,IC50,second compound 1 µM,> 10 µM
same,IC50,second compound 3.16 µM,> 10 µM
same,IC50,second compound 10 µM,> 10 µM
same,"viability, T/C",[1],94.8%
same,"viability, T/C",[2],90.6%
same,"viability, T/C",[3],93.8%
same,"viability, T/C",[4],75.5%
same,"viability, T/C",[5],78.7%
same,"viability, T/C",[6],59.7%
same,"viability, T/C",[7],92.8%
same,"viability, T/C",[8],83%
same,"viability, T/C",[9],87.9%
same,"viability, T/C",[10],66.7%
same,"viability, T/C",[11],99.8%
same,"viability, T/C",[12],84.4%
same,"viability, T/C",[13],76.3%
same,"viability, T/C",[14],85.6%
same,"viability, T/C",[15],76.9%
same,"viability, T/C",[16],76.7%
same,"viability, T/C",[17],99.3%
same,"viability, T/C",[18],87.9%
same,"viability, T/C",[19],76.3%
same,"viability, T/C",[20],65.8%
same,"viability, T/C",[21],87.9%
same,"viability, T/C",[22],79.3%
same,"viability, T/C",[23],81.5%
same,"viability, T/C",[24],99.3%
same,"viability, T/C",[25],64.2%
same,"viability, T/C",[26],92.6%
same,"viability, T/C",[27],86.3%
same,"viability, T/C",[28],90.7%
same,"viability, T/C",[29],102%
same,"viability, T/C",[30],87.4%
same,"viability, T/C",[31],73.3%
same,"viability, T/C",[32],79%
same,"viability, T/C",[33],85.8%
same,"viability, T/C",[34],80%
same,"viability, T/C",[35],97%
same,"viability, T/C",[36],63.5%
O=C(NO)c1cnc(N2CCN(S(=O)(=O)c3ccc4ccccc4c3)CC2)nc1 + CN(C)c1ccc(Nc2c3ccc(NC(=O)CCN4CCCC4)cc3nc3cc(NC(=O)CCN4CCCC4)ccc23)cc1,IC50,second compound 0.0316 µM,2.41 µM
same,IC50,second compound 0.1 µM,1.44 µM
same,IC50,second compound 0.316 µM,2.04 µM
same,IC50,second compound 1 µM,1.53 µM
same,IC50,second compound 3.16 µM,1.61 µM
same,IC50,second compound 10 µM,2.12 µM
same,"viability, T/C",[1],96%
same,"viability, T/C",[2],88.2%
same,"viability, T/C",[3],105%
same,"viability, T/C",[4],76.5%
same,"viability, T/C",[5],41.6%
same,"viability, T/C",[6],0.32%
same,"viability, T/C",[7],112%
same,"viability, T/C",[8],90.9%
same,"viability, T/C",[9],91%
same,"viability, T/C",[10],66.8%
same,"viability, T/C",[11],18%
same,"viability, T/C",[12],0.22%
same,"viability, T/C",[13],94.3%
same,"viability, T/C",[14],97.8%
same,"viability, T/C",[15],82.1%
same,"viability, T/C",[16],82.4%
same,"viability, T/C",[17],30.8%
same,"viability, T/C",[18],0.23%
same,"viability, T/C",[19],69.8%
same,"viability, T/C",[20],86.4%
same,"viability, T/C",[21],98.9%
same,"viability, T/C",[22],77.8%
same,"viability, T/C",[23],3.02%
same,"viability, T/C",[24],0.59%
same,"viability, T/C",[25],63.6%
same,"viability, T/C",[26],105%
same,"viability, T/C",[27],105%
same,"viability, T/C",[28],84.1%
same,"viability, T/C",[29],1.75%
same,"viability, T/C",[30],0.47%
same,"viability, T/C",[31],83.4%
same,"viability, T/C",[32],90%
same,"viability, T/C",[33],95.6%
same,"viability, T/C",[34],79%
same,"viability, T/C",[35],34.1%
same,"viability, T/C",[36],0.44%
Cc1cccc(N(C)C(=O)C2C(O)CCN2c2nc(C)cc(C(F)(F)F)c2C#N)c1 (stereo unspecified) + Cc1cnc(CNC(=O)c2c(=O)c3ccc(N4CCCN(C)CC4)nc3n3c2sc2ccccc23)cn1,IC50,second compound 0.0316 µM,> 10 µM
same,IC50,second compound 0.1 µM,> 10 µM
same,IC50,second compound 0.316 µM,> 10 µM
same,IC50,second compound 1 µM,> 10 µM
same,IC50,second compound 3.16 µM,> 10 µM
same,IC50,second compound 10 µM,> 10 µM
same,"viability, T/C",[1],82.4%
same,"viability, T/C",[2],80.5%
same,"viability, T/C",[3],89.2%
same,"viability, T/C",[4],97.2%
same,"viability, T/C",[5],82.3%
same,"viability, T/C",[6],98.5%
same,"viability, T/C",[7],102%
same,"viability, T/C",[8],94.2%
same,"viability, T/C",[9],94.2%
same,"viability, T/C",[10],67%
same,"viability, T/C",[11],88.6%
same,"viability, T/C",[12],92.4%
same,"viability, T/C",[13],93.7%
same,"viability, T/C",[14],75.2%
same,"viability, T/C",[15],99.5%
same,"viability, T/C",[16],73.8%
same,"viability, T/C",[17],112%
same,"viability, T/C",[18],84.3%
same,"viability, T/C",[19],94.6%
same,"viability, T/C",[20],98.5%
same,"viability, T/C",[21],87.8%
same,"viability, T/C",[22],88.4%
same,"viability, T/C",[23],106%
same,"viability, T/C",[24],99.7%
same,"viability, T/C",[25],77.3%
same,"viability, T/C",[26],103%
same,"viability, T/C",[27],96%
same,"viability, T/C",[28],93.4%
same,"viability, T/C",[29],107%
same,"viability, T/C",[30],87.7%
same,"viability, T/C",[31],85.1%
same,"viability, T/C",[32],114%
same,"viability, T/C",[33],98.3%
same,"viability, T/C",[34],95%
same,"viability, T/C",[35],96.9%
same,"viability, T/C",[36],86.7%
